Values of other authors, collected in patent publication US7622458B2, “Combination of ET-743 and a 5-fluorouracil pro-drug for cancer treatment” (Pharma Mar, S.A.U., priority 2004, dated 2009).

Experiments:
[1] = tested on: human tumor xenografts, including melanoma and ovarian and breast carcinoma; conditions: xenografts grown in athymic mice
[2] = tested on: sarcoma and breast and ovarian carcinoma; conditions: 1-, 3-, 24-, 72-hour i.v. infusion and 1 hour daily x5 schedules; patients with sarcoma and breast and ovarian carcinoma

For COc1cc2c(cc1O)CCN[C@]21CS[C@@H]2c3c(OC(C)=O)c(C)c4c(c3[C@H](COC1=O)N1[C@@H]2[C@H]2c3c(cc(C)c(OC)c3O)C[C@@H]([C@@H]1O)N2C)OCO4 [ET-743, ecteinascidin 743], the “Antineoplastic activity against human tumor xenografts” value [1] is given as “potent antineoplastic activity” and the “Clinical responses in phase I studies” value [2] is given as “Promising responses”.
